The text below walks through data of ChEMBL document CHEMBL3102819, “Morpholylureas are a new class of potent and selective inhibitors of the type 5 17-β-hydroxysteroid dehydrogenase (AKR1C3)” (Bioorg Med Chem, 2014).

Assay [1] addresses T1, Aldo-keto reductase family 1 member C1 (Homo sapiens, UniProt Q04828).
T1 sequence (Q04828 whole entry): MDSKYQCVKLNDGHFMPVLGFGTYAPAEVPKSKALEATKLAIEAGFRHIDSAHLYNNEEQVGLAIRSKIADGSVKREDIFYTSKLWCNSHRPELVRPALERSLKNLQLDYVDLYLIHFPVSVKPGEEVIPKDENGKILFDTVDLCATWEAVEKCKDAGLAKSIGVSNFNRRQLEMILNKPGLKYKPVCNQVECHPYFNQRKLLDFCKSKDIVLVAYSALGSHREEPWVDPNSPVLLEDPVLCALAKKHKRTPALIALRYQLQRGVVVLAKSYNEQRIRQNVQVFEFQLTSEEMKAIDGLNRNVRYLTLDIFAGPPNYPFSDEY
Briefly: Inhibition of recombinant AKR1C1 (unknown origin) after 1 hr by competitive fluorescence assay.

Assay [2] has as its target T2, Aldo-keto reductase family 1 member C3 (Homo sapiens, UniProt P42330).
T2 sequence (P42330 whole entry): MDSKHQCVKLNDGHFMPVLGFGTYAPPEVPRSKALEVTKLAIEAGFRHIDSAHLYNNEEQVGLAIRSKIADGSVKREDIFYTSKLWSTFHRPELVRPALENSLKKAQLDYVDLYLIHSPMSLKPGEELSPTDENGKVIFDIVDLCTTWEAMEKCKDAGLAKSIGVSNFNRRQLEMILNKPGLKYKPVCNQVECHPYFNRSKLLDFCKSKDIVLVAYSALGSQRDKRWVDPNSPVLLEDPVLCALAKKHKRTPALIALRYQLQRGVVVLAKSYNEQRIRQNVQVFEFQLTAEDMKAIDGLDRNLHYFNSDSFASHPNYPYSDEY
Briefly: Inhibition of recombinant AKR1C3 (unknown origin) after 1 hr by competitive fluorescence assay.

For assay [3], the target named is T2, Aldo-keto reductase family 1 member C3. Briefly: Inhibition of AKR1C3 (unknown origin) expressed in human HCT116 cells assessed as formation of PR-104H from PR-104A preincubated for 2 hrs. It counts as cell-based, HCT-116.
Assay [4] has as its target T3, Aldo-keto reductase family 1 member C4 (Homo sapiens, UniProt P17516).
T3 sequence (P17516 whole entry): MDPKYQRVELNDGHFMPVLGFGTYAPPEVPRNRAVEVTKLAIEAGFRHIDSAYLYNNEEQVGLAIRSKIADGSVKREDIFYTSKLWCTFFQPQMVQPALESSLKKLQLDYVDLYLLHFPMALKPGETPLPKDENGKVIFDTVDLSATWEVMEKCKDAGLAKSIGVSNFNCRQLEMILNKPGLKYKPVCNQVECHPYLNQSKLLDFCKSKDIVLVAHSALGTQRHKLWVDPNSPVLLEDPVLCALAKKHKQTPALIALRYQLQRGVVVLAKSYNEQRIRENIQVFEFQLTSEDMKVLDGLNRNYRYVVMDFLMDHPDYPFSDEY
Briefly: Inhibition of recombinant AKR1C4 (unknown origin) after 1 hr by competitive fluorescence assay.

For assay [5], the target named is T4, Aldo-keto reductase family 1 member C2 (Homo sapiens, UniProt P52895).
T4 sequence (P52895 whole entry): T1 sequence (Q04828 whole entry) with T38V, R47H, L54V, C87S, V151M, R170H, Q172L
The assay can be described thus: Inhibition of recombinant AKR1C2 (unknown origin) after 1 hr by competitive fluorescence assay.

A word on the IC50: it is the concentration that gives 50% inhibition.

Molecules are shown by their SMILES. Where a chain is given by its changes, count along the chain named. Bounds are passed on as bounds.

For `O=C(N1CCOCC1)N1CCN(c2ccc(Cl)cc2)CC1`, the IC50 in assay [1] is above 30000 nM; in assay [2] it was 110 nM; in assay [3] it was 18 nM; in assay [4], above 30000 nM; in assay [5], above 30000 nM.

Consider `O=C(N1CCOCC1)N1CCN(c2ccc(Cl)cc2Cl)CC1`, for which the IC50 is above 30000 nM in assay [1]; 25 nM in assay [2]; 3 nM in assay [3]; above 30000 nM in assay [4]; above 30000 nM in assay [5].

Consider `O=C(N1CCOCC1)N1CCN(c2ccc(Cl)cc2CO)CC1`, for which the IC50 in assay [1] is above 30000 nM; in assay [2], 160 nM; in assay [3], 13 nM; in assay [4], above 30000 nM; in assay [5], above 30000 nM.

For the compound `O=C(CO)N1CCN(C(=O)N2CCN(c3ccc(Cl)cc3)CC2)CC1`, the IC50 is above 30000 nM in assay [1]; 460 nM in assay [2]; 59 nM in assay [3]; above 30000 nM in assay [4]; above 30000 nM in assay [5].
